Measurements reported in US20260216206A1 (MEDINCELL SA, priority 2023, published 2026).

What was measured:
[1] = Open-label SAD and MAD study, safety and tolerability in healthy subjects and patients (Example 5); format: in vivo, humans; settings: washout period following oral olanzapine, 4/127
Method: (§1) This study was an open-label, SAD, and MAD study to evaluate the safety, tolerability, and PK of Formulation 1 in healthy subjects and patients with a diagnosis of schizophrenia or schizoaffective disorder. Healthy subjects received subtherapeutic Formulation 1 doses of up to 105 mg and patients received therapeutic doses of up to 566 mg. […] Subjects and patients who met screening eligibility were assigned to 1 of 8 active cohorts, or the Vehicle Cohort, as detailed in Table 5.1 below.
Safety was assessed during the study by evaluating AEs, clinical laboratory test results (serum, hematology, urinalysis, and prolactin), vital signs measurements, ECG, physical examination, injection site pain, local tolerability, and leakage assessment. […]
The safety endpoints in this study included incidence of adverse events, changes from baseline in ECG parameters, selected clinical laboratory values (including prolactin) and vital signs, as well as changes in neurological and clinical symptom assessments (eg, PANSS, ESRS, AIMS, BARS, CGI-S, C-SSRS), and other safety measures that were evaluated throughout the study.

[2] = Open-label SAD and MAD study, pharmacokinetics in healthy subjects and patients (Example 5); format: in vivo, humans; settings: oral, 2.5 to 20 mg/day for 7 days, steady-state
Method: as §1
All cohorts included assessments of safety, tolerability, and intensive PK sampling.
Except for the starting dose of 70 mg, the study followed an adaptive design in which the decision to dose-escalate with Formulation 1 was based on a review of the PK and safety data from the preceding lower dose of Formulation 1.
An extensive PK collection scheme was applied following the last oral dose to fully characterize the PK at steady-state.
In multiple-dose cohorts, the 3 doses of Formulation 1 were administered on day 1, day 29 (week 4) and day 57 (week 8), respectively.

[3] = after oral administration; cited from earlier work

SMILES: Cc1cc2c(s1)Nc1ccccc1N=C2N1CCN(C)CC1 [olanzapine, 2-methyl-4-(4-methyl-1-piperazinyl)-10H-thieno[2,3-b][1,5]benzodiazepine]
- Participants withdrawn due to adverse events [1]: 3.1%
- Systemic exposure (Cmax, AUCt,ss) versus dose [2]: dose-proportional
- Half life [3]: approximately 30 hours
